Read-outs that look alike come from different tables or passages of the source. Each block holds one compound with its values, some of them ahead of it.
Tested on: IL-1β production in PMA-differentiated THP-1 cells
Test: IL-1β production in PMA-differentiated THP-1 cells stimulated with gramicidin (hTHP-1 assay containing 2% fetal bovine serum)
Assay type: cell-based, human
Details: 2% fetal bovine serum, read-out: hTHP-1 IC50 (Average IC50 of compounds in hTHP-1 assay)
Procedure, shortened: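 IL-1β release was read by HTRF on supernatants of 50,000 PMA-primed (20 ng/ml, 16-18 h) THP-1 cells/well in 2% FBS medium. Cells saw compound for 1 h (11-point titration from 100 μM, 0.37% DMSO) before a 2 h gramicidin (5 μM) challenge.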

[1] = Homo sapiens, THP-1, Table B1, class symbols
[2] = Homo sapiens, THP-1, Table B1, cells printed as numeric bound
[3] = Homo sapiens, THP-1, Table B2, class symbols

Compound: CC(C)c1cc(CCC2CCOCC2)cc(C(C)C)c1CC(=O)N=S(N)(=O)c1cc(C(C)(C)O)n(-c2ccccc2)n1 (single isomer, unassigned) [Example 234, (R) or (S)—N-(amino(5-(2-hydroxypropan-2-yl)-1-phenyl-1H-pyrazol-3-yl)(oxo)-λ^6-sulfaneylidene)-2-(2,6-diisopropyl-4-(2-(tetrahydro-2H-pyran-4-yl)ethyl)phenyl)acetamide]
IC50 [1]: 5 to 30 µM

Compound: CC(C)c1cc(C(=O)CC2CCCCC2)cc(C(C)C)c1CC(=O)N=S(N)(=O)c1cc(C(C)(C)O)n(-c2ccccc2)n1 (single isomer, unassigned) [Example 285, (R) or (S)-N-(amino(5-(2-hydroxypropan-2-yl)-1-phenyl-1H-pyrazol-3-yl)(oxo)-λ^6-sulfaneylidene)-2-(4-(2-cyclohexylacetyl)-2,6-diisopropylphenyl) acetamide]
IC50 [1]: 1 to 5 µM

Compound: CC(C)c1cc(C#CC2CCOCC2)cc(C(C)C)c1CC(=O)N=S(N)(=O)c1cc(C(C)(C)O)n(-c2ccccc2)n1 (single isomer, unassigned) [Example 278, (S) or (R)-N-(amino(5-(2-hydroxypropan-2-yl)-1-phenyl-1H-pyrazol-3-yl)(oxo)-λ^6-sulfaneylidene)-2-(2,6-diisopropyl-4-((tetrahydro-2H-pyran-4-yl)ethynyl)phenyl)acetamide]
IC50 [2]: > 30 µM

Compound: CC(C)c1cc(C#CC2CCCCC2)cc(C(C)C)c1CC(=O)N=S(N)(=O)c1cc(C(C)(C)O)n(-c2ccccc2)n1 (single isomer, unassigned) [Example 280, (S) or (R)-N-(amino (5-(2-hydroxypropan-2-yl)-1-phenyl-1H-pyrazol-3-yl)(oxo)-λ^6-sulfaneylidene)-2-(4-(cyclohexylethynyl)-2,6-diisopropylphenyl) acetamide]
IC50 [2]: > 30 µM

Compound: CC(C)c1cc(-c2ccc3ccccc3c2)cc(C(C)C)c1CC(=O)N=[S@](=O)(NC#N)c1cnc(C(C)(C)O)s1 [Example 345, (S)-N-(cyanamido(2-(2-hydroxypropan-2-yl)thiazol-5-yl)(oxo)-λ^6-sulfaneylidene)-2-(2,6-diisopropyl-4-(naphthalen-2-yl)phenyl)acetamide]
IC50 [1]: 5 to 30 µM

Compound: CC(C)c1cc(C#N)c(F)c(C(C)C)c1CC(=O)N=S(N)(=O)c1cc(C(C)(C)O)n(-c2ccccc2)n1 (single isomer, unassigned) [Example 276, (S) or (R)-N-(amino (5-(2-hydroxypropan-2-yl)-1-phenyl-1H-pyrazol-3-yl)(oxo)-λ^6-sulfaneylidene)-2-(4-cyano-3-fluoro-2,6-diisopropylphenyl) acetamide]
IC50 (Table B1, class symbols): 5 to 30 µM

Compound: NS(=O)(=NC(=O)Cc1c2c(cc3c1CCC3)CCC2)c1cnn2c1OCCC2 (single isomer, unassigned) [Example 269, (R) or (S)-N-(amino(6,7-dihydro-5H-pyrazolo[5,1-b][1,3]oxazin-3-yl)(oxo)-λ^6-sulfaneylidene)-2-(1,2,3,5,6,7-hexahydro-s-indacen-4-yl)acetamide]
IC50 [2]: > 30 µM

Compound: CC(C)c1ccc(F)c(C(C)C)c1CC(=O)N=S(N)(=O)c1cnn2c1OCCC2 (single isomer, unassigned) [Example 312, (R) or (S)-N-(amino (6,7-dihydro-5H-pyrazolo[5,1-b][1,3]oxazin-3-yl)(oxo)-λ^6-sulfaneylidene)-2-(3-fluoro-2,6-diisopropylphenyl) acetamide]
IC50 (Table B1, class symbols): 0.2 to 1 µM

Compound: CC(C)c1cc2c(c(C(C)C)c1CC(=O)N=S(N)(=O)c1ccc(CN(C)C)cc1)COC2 (stereo not shown) [Example 134, N-(amino(4-((dimethylamino)methyl)phenyl)(oxo)-λ^6-sulfaneylidene)-2-(4,6-diisopropyl-1,3-dihydroisobenzofuran-5-yl) acetamide]
IC50 [1]: 1 to 5 µM

Compound: CC(C)(O)c1ncc([S@](=O)(=NC(=O)Cc2c3c(cc4c2CC4)CCC3)NC#N)s1 [Example 363, (S)-N-(cyanamido(2-(2-hydroxypropan-2-yl)thiazol-5-yl) (oxo)-λ^6-sulfaneylidene)-2-(2,4,5,6-tetrahydro-1H-cyclobuta [f]inden-3-yl)acetamide]
IC50 [3]: 0.2 to 1 µM

Compound: CC(C)(O)c1ncc(S(N)(=O)=NC(=O)Cc2c(C3CC3)cc(F)cc2C(F)(F)F)s1 (stereo not shown) [Example 98, N-(amino(2-(2-hydroxypropan-2-yl)thiazol-5-yl)(oxo)-λ^6-sulfaneylidene)-2-(2-cyclopropyl-4-fluoro-6-(trifluoromethyl)phenyl)acetamide]
IC50 [1]: 5 to 30 µM

Compound: Cc1c2c(cc(C3CC3)c1CC(=O)N=[S@@](N)(=O)c1cnc(C(C)(C)O)s1)CCC2 [Example 233, (R)-N-(amino(2-(2-hydroxypropan-2-yl)thiazol-5-yl)(oxo)-λ^6-sulfaneylidene)-2-(6-cyclopropyl-4-methyl-2,3-dihydro-1H-inden-5-yl)acetamide]
IC50 [1]: 5 to 30 µM

Compound: CC(C)c1ccc(F)c(C(C)C)c1CC(=O)N=S(N)(=O)c1cnn2c1OCCC2 (single isomer, unassigned) [Example 311, (S) or (R)-N-(amino (6,7-dihydro-5H-pyrazolo[5,1-b][1,3]oxazin-3-yl)(oxo)-λ^6-sulfaneylidene)-2-(3-fluoro-2,6-diisopropylphenyl) acetamide]
IC50 (Table B1, class symbols): 5 to 30 µM

Compound: CC(C)c1cc2c(c(C(C)C)c1CC(=O)N=S(N)(=O)c1ccn(CCO)n1)OC(F)(F)O2 (racemic) [Example 348, (R) and (S)—N-(amino(1-(2-hydroxyethyl)-1H-pyrazol-3-yl)(oxo)-λ^6-sulfaneylidene)-2-(2,2-difluoro-4,6-diisopropylbenzo[d][1,3]dioxol-5-yl)acetamide]
IC50 (Table B2, class symbols): 0.2 to 1 µM

The remaining lines, values ahead:

IC50 [1]: 1 to 5 µM
Compound: CC(C)c1cc2c(c(C(C)C)c1CC(=O)N=S(N)(=O)c1cnc(C(C)(C)O)s1)CCC2 (stereo not shown) [Example 142, N-(amino(2-(2-hydroxypropan-2-yl)thiazol-5-yl)(oxo)-λ^6-sulfaneylidene)-2-(4,6-diisopropyl-2,3-dihydro-1H-inden-5-yl)acetamide]

IC50 [1]: 1 to 5 µM
Compound: CC(C)c1cc2c(c(C(C)C)c1CC(=O)N=S(N)(=O)c1cccc(C(C)(C)O)c1)COC2 (stereo not shown) [Example 266, N-(amino (3-(2-hydroxypropan-2-yl)phenyl)(oxo)-λ^6-sulfaneylidene)-2-(4,6-diisopropyl-1,3-dihydroisobenzofuran-5-yl)acetamide]

IC50 [3]: 5 to 30 µM
Compound: CC(C)c1cc(C#N)cc(C(C)C)c1CC(=O)N=[S@](=O)(NC#N)c1nc(CO)c(C(C)(C)O)s1 [Example 375, (S)-N-(cyanamido(4-(hydroxymethyl)-5-(2-hydroxypropan-2-yl)thiazol-2-yl)(oxo)-λ^6-sulfaneylidene)-2-(4-cyano-2,6-diisopropylphenyl)acetamide]

IC50 [1]: 5 to 30 µM
Compound: CC(C)c1cc(CCC2CCCCC2)cc(C(C)C)c1CC(=O)N=S(N)(=O)c1cc(C(C)(C)O)n(-c2ccccc2)n1 (single isomer, unassigned) [Example 281, (R) or (S)-N-(amino(5-(2-hydroxypropan-2-yl)-1-phenyl-1H-pyrazol-3-yl)(oxo)-λ^6-sulfaneylidene)-2-(4-(2-cyclohexylethyl)-2,6-diisopropylphenyl) acetamide]

IC50 [1]: 0.2 to 1 µM
Compound: CC(C)c1cc(C#N)cc(C(C)C)c1CC(=O)N=S(N)(=O)c1sc(C(C)(C)O)nc1CO (stereo not shown) [Example 22, N-(amino(4-(hydroxymethyl)-2-(2-hydroxypropan-2-yl)thiazol-5-yl)(oxo)-λ^6-sulfaneylidene)-2-(4-cyano-2,6-diisopropylphenyl)acetamide]

IC50 (Table B2, class symbols): 5 to 30 µM
Compound: CC(C)c1cc(C#N)cc(C(C)C)c1CC(=O)N=S(N)(=O)c1nc(CO)c(C(C)(C)O)s1 (single isomer, unassigned) [Example 386, (S) or (R)-N-(amino(4-(hydroxymethyl)-5-(2-hydroxypropan-2-yl)thiazol-2-yl)(oxo)-λ^6-sulfaneylidene)-2-(4-cyano-2,6-diisopropylphenyl)acetamide]

IC50 (Table B1, class symbols): 5 to 30 µM
Compound: COCc1cc(C(C)C)c(CC(=O)N=S(N)(=O)c2ncc(C(C)(C)O)s2)c(C(C)C)c1 (single isomer, unassigned) [Example 186, (S) or (R)-N-(amino(5-(2-hydroxypropan-2-yl)thiazol-2-yl)(oxo)-λ^6-sulfaneylidene)-2-(2,6-diisopropyl-4-(methoxymethyl)phenyl)acetamide]

IC50 [1]: 1 to 5 µM
Compound: CC(C)c1cc2c(c(C(C)C)c1CC(=O)N=S(N)(=O)c1cnc(C(C)(C)O)s1)CCC2 (single isomer, unassigned) [Example 213, (S) or (R)-N-(amino(2-(2-hydroxypropan-2-yl)thiazol-5-yl)(oxo)-λ^6-sulfaneylidene)-2-(4,6-diisopropyl-2,3-dihydro-1H-inden-5-yl)acetamide]

IC50 (Table B1, class symbols): 0.04 to 0.2 µM
Compound: CC(C)c1cc(C#N)c(F)c(C(C)C)c1CC(=O)N=S(N)(=O)c1ncc(C(C)(C)O)s1 (single isomer, unassigned) [Example 42]

IC50 (Table B1, class symbols): 5 to 30 µM
Compound: Cc1sc(S(N)(=O)=NC(=O)Cc2c(C(C)C)ccc(F)c2C(C)C)cc1C(C)(C)O (single isomer, unassigned) [Example 174, (S) or (R)-N-(amino(4-(2-hydroxypropan-2-yl)-5-methylthiophen-2-yl)(oxo)-λ^6-sulfaneylidene)-2-(3-fluoro-2,6-diisopropylphenyl) acetamide]

IC50 [1]: 0.04 to 0.2 µM
Compound: CC(C)c1cc2c(c(C(C)C)c1CC(=O)N=S(N)(=O)c1sc(C(C)(C)O)cc1F)COC2 (stereo not shown) [Example 246, N-(amino(3-fluoro-5-(2-hydroxypropan-2-yl)thiophen-2-yl)(oxo)-λ^6-sulfaneylidene)-2-(4,6-diisopropyl-1,3-dihydroisobenzofuran-5-yl) acetamide]

Source: US20230059136A1, “THE COMPOUNDS AND COMPOSITIONS FOR TREATING CONDITIONS ASSOCIATED WITH NLRP ACTIVITY” (Novartis AG, priority 2018, published 2023)
